Values of other authors in US5391753A, “Heteroaryl substituted phenylethenyl compounds having retinoid-like biological activity” (Allergan, Inc., priority 1993, dated 1995).

Test system: TPA induced ODC activity (ornithine decarboxylase)
Conditions: qualitative statement on retinoic acid, background

CC1=C(/C=C/C(C)=C/C=C/C(C)=C/C(=O)O)C(C)(C)CCC1 [Retinoic acid]
inhibition of induction of ODC activity by TPA: inhibits this induction of ODC activity by TPA
